# Reference: patent US20070218475A1, “Efficient drug screening for protein targets” (priority 2005, published 2007)
# Tests used:
# Smo = molecular target: T1, Smo (Mus musculus, UniProt P56726); experiment: Fluorescence (BODIPY-cyclopamine) binding assay, Smo-expressing Cos-1 cells; details: Cos-1 cells transiently transfected, fluorescence microscopy and flow cytometry
# T1 construct: expressed in transfected cells; host or cells: Cos-1
# Description: (§1) For flow cytometry experiments, the cells were then trypsinized, collected by centrifugation, resuspended in phenol red-free DMEM containing 0.5% bovine calf serum, and analyzed for green fluorescence (FACScan, Beckton Dickinson). […] Curve fitting analysis was performed with Kaleidograph (Synergy Software).
# Shh signaling = experiment: Shh-LIGHT2 assay for Hh pathway activation (Gli-dependent luciferase reporter); format: cell-based, mouse; details: Shh-LIGHT2 mouse cultured cell assay; read-out: IC50, inhibition of Shh signaling
# mouse Ptch = molecular target: T2, mouse Ptch (Mus musculus, UniProt Q61115); experiment: Fluorescence (BODIPY-cyclopamine) binding assay, Cos-1 cells expressing Ptch; details: flow cytometry
# T2 construct: expressed in transfected cells; host or cells: Cos-1
# T2 sequence (Q61115 1-1434): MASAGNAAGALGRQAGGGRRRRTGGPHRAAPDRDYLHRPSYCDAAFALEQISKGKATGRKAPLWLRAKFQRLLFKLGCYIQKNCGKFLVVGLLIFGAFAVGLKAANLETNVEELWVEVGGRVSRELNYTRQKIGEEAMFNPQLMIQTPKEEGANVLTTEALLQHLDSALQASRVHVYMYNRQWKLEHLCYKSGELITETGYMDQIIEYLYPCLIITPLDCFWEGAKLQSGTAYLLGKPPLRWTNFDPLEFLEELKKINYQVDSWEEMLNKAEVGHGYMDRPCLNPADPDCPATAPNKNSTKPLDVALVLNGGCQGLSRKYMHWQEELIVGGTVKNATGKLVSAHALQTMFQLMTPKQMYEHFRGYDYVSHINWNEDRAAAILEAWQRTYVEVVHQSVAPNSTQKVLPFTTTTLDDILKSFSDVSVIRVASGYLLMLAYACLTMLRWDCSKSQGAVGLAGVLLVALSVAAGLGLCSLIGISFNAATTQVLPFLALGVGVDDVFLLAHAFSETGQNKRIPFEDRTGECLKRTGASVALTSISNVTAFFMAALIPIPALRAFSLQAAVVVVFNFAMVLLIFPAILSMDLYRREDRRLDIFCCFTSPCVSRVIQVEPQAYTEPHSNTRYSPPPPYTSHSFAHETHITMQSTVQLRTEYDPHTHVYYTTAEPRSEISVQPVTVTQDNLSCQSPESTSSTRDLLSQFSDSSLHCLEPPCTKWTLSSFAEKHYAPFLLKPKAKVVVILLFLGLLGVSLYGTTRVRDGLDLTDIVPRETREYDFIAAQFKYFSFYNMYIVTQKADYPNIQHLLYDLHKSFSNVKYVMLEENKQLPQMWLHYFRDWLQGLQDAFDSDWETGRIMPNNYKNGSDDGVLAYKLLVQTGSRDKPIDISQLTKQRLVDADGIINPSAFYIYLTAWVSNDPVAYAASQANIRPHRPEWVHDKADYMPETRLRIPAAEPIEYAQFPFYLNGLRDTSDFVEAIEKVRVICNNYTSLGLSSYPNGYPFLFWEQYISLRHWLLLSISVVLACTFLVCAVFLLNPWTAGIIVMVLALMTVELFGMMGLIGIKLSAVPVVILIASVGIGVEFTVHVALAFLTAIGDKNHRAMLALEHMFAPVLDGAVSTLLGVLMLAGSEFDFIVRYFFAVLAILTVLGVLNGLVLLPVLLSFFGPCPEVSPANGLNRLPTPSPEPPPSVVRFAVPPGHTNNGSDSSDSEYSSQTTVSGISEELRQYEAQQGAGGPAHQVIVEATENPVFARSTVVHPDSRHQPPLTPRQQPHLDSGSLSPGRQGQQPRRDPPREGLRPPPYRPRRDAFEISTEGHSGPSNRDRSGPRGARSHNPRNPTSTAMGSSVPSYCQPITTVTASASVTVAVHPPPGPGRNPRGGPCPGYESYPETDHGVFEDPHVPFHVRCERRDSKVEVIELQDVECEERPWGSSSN
# Description: (§2) Fluorescence binding assay: Cos-1 cells were transfected in 6-well plates with the described expression vectors (1 μg/well), and after two days, incubated in DMEM containing 10% fetal bovine serum, 5 nM BODIPY-cyclopamine, and various concentrations of the indicated competitors for 4-6 h at 37° C. For flow cytometry experiments, the cells were then trypsinized, collected by centrifugation, resuspended in phenol red-free DMEM containing 0.5% bovine calf serum, and analyzed for green fluorescence (FACScan, Beckton Dickinson). A fluorescence intensity range that excludes non-transfected cells was then selected for quantification of specific BODIPY-cyclopamine binding (see brackets in FIGS. 2C, 2D, and 3A). Curve fitting analysis was performed with Kaleidograph (Synergy Software).
# SmoΔCT = molecular target: T3, SmoΔCT (Mus musculus, UniProt P56726); experiment: Fluorescence (BODIPY-cyclopamine) binding assay, Cos-1 cells expressing SmoΔCT; details: Cos-1 cells, flow cytometry
# T3 construct: expressed in transfected cells; host or cells: Cos-1
# T3 sequence (P56726 33-555 limits assumed): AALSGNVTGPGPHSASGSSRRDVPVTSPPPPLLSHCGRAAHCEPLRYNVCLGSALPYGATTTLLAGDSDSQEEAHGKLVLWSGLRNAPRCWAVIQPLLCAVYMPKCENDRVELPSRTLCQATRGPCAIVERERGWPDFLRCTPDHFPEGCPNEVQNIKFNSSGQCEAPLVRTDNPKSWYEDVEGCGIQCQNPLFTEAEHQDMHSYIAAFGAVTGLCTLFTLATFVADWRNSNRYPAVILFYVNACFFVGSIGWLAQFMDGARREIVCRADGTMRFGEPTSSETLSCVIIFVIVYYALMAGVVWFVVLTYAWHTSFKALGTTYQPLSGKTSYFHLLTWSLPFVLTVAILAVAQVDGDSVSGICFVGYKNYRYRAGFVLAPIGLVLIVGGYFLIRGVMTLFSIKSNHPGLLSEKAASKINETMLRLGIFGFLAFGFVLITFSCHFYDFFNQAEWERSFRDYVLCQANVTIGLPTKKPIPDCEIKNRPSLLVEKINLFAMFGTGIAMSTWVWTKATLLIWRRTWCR
# Excerpt: Preparation of Smo fusion proteins and deletion mutants: Both Smo-Myc3 and SmoA1-Myc3 are C-terminally fused to three consecutive Myc epitopes. […] Smo-GFP is comprised of green fluorescent protein fused to the C-terminus of Smo, and the fluorescent proteins in SmoA1-YFP, and SmoA1-GFP are similarly fused to the C-terminus of SmoA1. All constructs were generated by PCR and verified by DNA sequencing.
# as §1
# mouse Frizzled7 protein = molecular target: T4, mouse Frizzled7 protein (Mus musculus, UniProt Q61090); experiment: Fluorescence (BODIPY-cyclopamine) binding assay, Cos-1 cells expressing Frizzled7; details: flow cytometry
# T4 construct: expressed in transfected cells; host or cells: Cos-1
# Description: as §2
# T1 sequence (P56726 33-793): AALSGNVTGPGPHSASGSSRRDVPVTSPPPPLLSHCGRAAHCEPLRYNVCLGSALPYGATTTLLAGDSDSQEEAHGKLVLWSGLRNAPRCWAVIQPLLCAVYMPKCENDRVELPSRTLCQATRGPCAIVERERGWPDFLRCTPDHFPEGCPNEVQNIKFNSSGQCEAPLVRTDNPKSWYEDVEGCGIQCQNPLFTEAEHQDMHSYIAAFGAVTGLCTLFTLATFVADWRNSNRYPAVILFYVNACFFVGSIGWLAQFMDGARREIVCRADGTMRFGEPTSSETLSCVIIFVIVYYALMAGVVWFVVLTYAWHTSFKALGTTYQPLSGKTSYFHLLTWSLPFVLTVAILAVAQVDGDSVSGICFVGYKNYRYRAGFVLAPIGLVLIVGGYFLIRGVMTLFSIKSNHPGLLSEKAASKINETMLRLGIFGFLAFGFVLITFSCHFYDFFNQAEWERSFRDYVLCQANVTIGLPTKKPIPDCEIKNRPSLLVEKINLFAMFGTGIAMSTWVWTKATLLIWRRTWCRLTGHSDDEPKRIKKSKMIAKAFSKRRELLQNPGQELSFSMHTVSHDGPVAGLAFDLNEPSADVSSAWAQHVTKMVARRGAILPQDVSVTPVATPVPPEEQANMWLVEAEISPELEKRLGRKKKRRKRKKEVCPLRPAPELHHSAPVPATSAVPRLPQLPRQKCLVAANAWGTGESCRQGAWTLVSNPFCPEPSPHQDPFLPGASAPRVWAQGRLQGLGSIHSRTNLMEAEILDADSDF
smiles,measurement,setting,value
CC1=C2CC3C(CC=C4C[C@@H](O)CCC43C)C2CCC12O[C@@H]1CC(C)CN(CCNC(=O)CCCCCNC(=O)CCC3=[N+]4C(=Cc5c(C)cc(C)n5[B-]4(F)F)C=C3)C1C2C (some centres unmarked) [BODIPY-cyclopamine],binding to Smo-expressing cells,Smo,bound with high capacity
same,IC50,Shh signaling,150 nM
same,binding to cells expressing mouse Ptch,mouse Ptch,did not bind
same,binding to cells expressing SmoΔCT,SmoΔCT,can bind
same,binding to cells expressing mouse Frizzled7,mouse Frizzled7 protein,did not bind
